“Also recorded” adds a separate entry of the source. Where two headings read alike, the source gives them in different places.
How the values were obtained:
[1] = test system: hair shedding / hair growth of the scalp in patients; test: Small-scale human clinical study of 0.01% AS101 topical spray, TrichoScan hair density analysis; assay type: in vivo
Text: Two small-scale human clinical studies were each conducted over a 6 month period to evaluate the potential use of an 0.01% AS101 spray formulation for the prevention of hair shedding and/or enhancing hair growth. Patients received no other alopecia treatment for at least 3 months prior to commencement of the study.
The sample group consisted of 36 patients, of which 6 withdrew due to non-compliance. Data from a further 14 patients was considered to be unsuitable for analysis with the TrichoScan system, for example, due to untraceable tattoos. 16 patients were therefore available for evaluation.
During an initial visit, a designated area of the scalp (about 0.7 cm^2) was shaved. Three days later, the area was tattooed using red ink, and photographed (Nikon digital camera). Patients were provided with a topical spray composition comprising 0.01% AS101 in 20% propylene glycol, 20% water and 60% ethyl alcohol, and were instructed to apply about 2 ml of the composition on the designated area on a daily basis for the first week, and once a day, twice a week thereafter. Patients were examined upon enrollment, and then after about 2 months, after about 3 months, and after about 6 months. Hair density, terminal hair density, and vellus hair density were analyzed, using the DatInf^R Image DB image archiving system, and TichoScan software.
Results were calculated in terms of hair density, terminal hair density, and vellus hair density.
FIGS. 2a and 2b present the data obtained for the hair density, terminal hair density and vellus hair density, each per cm^2, with two representative individuals of the study. The above parameters were measured at commencement of the study, after about 1 month, after about 3 months, and after about 6 months. All results were obtained using the DatInf^R Image DB image archiving system, and TichoScan software.

[2] = test system: bone marrow toxicity and alopecia induced by chemotherapy; conditions: cancer patients; cited from earlier work
hair growth [3] = conditions: nude mice, normal mice; in nude mice systemic, oral or topical; cited from earlier work
hair growth [4] = conditions: humans; cited from earlier work
anagen / catagen = conditions: C57BL/6 mouse model; cited from earlier work
KGF expression = conditions: cultured fibroblasts; via Cys118 of p21ras, ras signalling pathway; cited from earlier work
interferon (IFN) [5] = conditions: mice; cited from earlier work
interferon (IFN) [6] = conditions: humans; cited from earlier work
IL-1, IL-6, TNF-α, IL-10 = conditions: cited from earlier work

## Cl[TeH]1(Cl)(Cl)OCCO1 [AS101, ammonium trichloro(dioxyethylene-O,O′)tellurate]
[1]; 0.01% AS101 topical spray, 6 months
  side-effects: No side-effects were observed
[1]; 0.01% AS101 topical spray, 6 months, 16 evaluable patients
  patients responding partially (increase observed during part of the treatment period): 18.75%
[1]; 0.01% AS101 topical spray, about 2 ml, daily first week then twice a week, 6 months, 16 evaluable patients
  patients who completed the study responding with a consistent increase in hair density: 37.5%
[1]; after about 1 month, representative person and person (FIGS. 2a, 2b)
  hair density, terminal hair density and vellus hair density per cm^2: significant increase
[2]
  protection from bone marrow toxicity and alopecia induced by chemotherapy: ability to protect
Hair growth [3]
  induction of hair growth: induce hair growth
Hair growth [4]
  induction of hair growth: induce hair growth
Anagen / catagen
  anagen induction and retardation of spontaneous catagen: induce anagen and retard spontaneous catagen
KGF expression
  KGF expression: upregulates KGF expression
Interferon (IFN) [5]
  interferon (IFN) induction: potent activator; also recorded: potent inducer
Interferon (IFN) [6]
  interferon (IFN) induction: potent activator; also recorded: potent inducer
IL-1, IL-6, TNF-α, IL-10; m-RNA level
  IL-10 inhibition: inhibit IL-10 at the m-RNA level
IL-1, IL-6, TNF-α, IL-10; macrophages are one main target
  secretion of cytokines such as IL-1, IL-6 and TNF-α: induce the secretion

Reference: US20090269418A1, “Compositions and Methods for Inducing Hair Growth” (BioMas Ltd, priority 2004, published 2009)
